Test results published in the supplement of paper PMC8671470.

Legend:
Conditions in all cases: 72 h
BV-173 = tested on: BV-173
Outline: (§1)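 The IC50 was derived from log-logistic dose–response fitting. Each of fifteen myeloid leukaemia cell lines, seeded in RPMI 1640 within its linear growth range, was exposed in 384-well plates to five tenfold doses (1 to 10,000 nM) in duplicate for 72 h at 37 °C and 5% CO2. Luminescent ATP viability readings were normalised to vehicle and to a positive control at 10 µM before four-parameter curve fitting.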

HEL = tested on: HEL
Outline: as §1

HL-60 = tested on: HL-60
Outline: as §1

K-562 = tested on: K-562
Outline: as §1

KCL-22 = tested on: KCL-22
Outline: as §1

KG-1 = tested on: KG-1
Outline: as §1

KU-812 = tested on: KU-812
Outline: as §1

LAMA-84 = tested on: LAMA-84
Outline: as §1

ML-2 = tested on: ML-2
Outline: as §1

MOLM-13 = tested on: MOLM-13
Outline: as §1

MV4-11 = tested on: MV4-11
Outline: as §1

Mono-Mac-6 = tested on: Mono-Mac-6
Outline: as §1

NOMO-1 = tested on: NOMO-1
Outline: as §1

SHI-1 = tested on: SHI-1
Outline: as §1

THP-1 = tested on: THP-1
Outline: as §1

Row | Structure (SMILES) | IC50 (cell viability) (BV-173) | IC50 (cell viability) (HEL) | IC50 (cell viability) (HL-60) | IC50 (cell viability) (K-562) | IC50 (cell viability) (KCL-22) | IC50 (cell viability) (KG-1) | IC50 (cell viability) (KU-812) | IC50 (cell viability) (LAMA-84) | IC50 (cell viability) (ML-2) | IC50 (cell viability) (MOLM-13) | IC50 (cell viability) (MV4-11) | IC50 (cell viability) (Mono-Mac-6) | IC50 (cell viability) (NOMO-1) | IC50 (cell viability) (SHI-1) | IC50 (cell viability) (THP-1)
1 | Nc1ccn([C@@H]2O[C@H](CO)[C@@H](O)[C@@H]2O)c(=O)n1 [Cytarabine] | 0.00472 µM | 0.0478 µM | 0.43 µM | 0.092 µM | 0.0389 µM | 0.116 µM | 0.034 µM | 0.0585 µM | 0.0681 µM | 0.0806 µM | 0.566 µM | 0.364 µM | 2.29 µM | 0.135 µM | 4.77 µM
2 | CCOc1ccc(Cc2cc([C@@H]3O[C@H](CO)[C@@H](O)[C@H](O)[C@H]3O)ccc2Cl)cc1 [Dapagliflozin] | > 10 µM | > 10 µM | > 10 µM | > 10 µM | > 10 µM | > 10 µM | > 10 µM | > 10 µM | > 10 µM | > 10 µM | > 10 µM | > 10 µM | > 10 µM | > 10 µM | > 10 µM
3 | CCN(CC)CCN(Cc1ccc(-c2ccc(C(F)(F)F)cc2)cc1)C(=O)Cn1c(SCc2ccc(F)cc2)nc(=O)c2c1CCC2 [Darapladib] | 2.15 µM | 2.63 µM | 2.07 µM | 1.64 µM | 2.32 µM | 2.42 µM | 1.98 µM | 2.23 µM | 2.62 µM | 2.15 µM | 3.36 µM | 2.9 µM | 2.82 µM | 2.59 µM | 2.94 µM
4 | O=C(O)C(Cl)Cl [Dichloroacetate] | > 10 µM | > 10 µM | > 10 µM | > 10 µM | > 10 µM | > 10 µM | > 10 µM | > 10 µM | > 10 µM | > 10 µM | > 10 µM | > 10 µM | > 10 µM | > 10 µM | > 10 µM
5 | O=C1Oc2ccccc2C(=O)C1CC1C(=O)Oc2ccccc2C1=O (stereo not given) [Dicumarol] | > 10 µM | > 10 µM | > 10 µM | > 10 µM | > 10 µM | > 10 µM | > 10 µM | > 10 µM | > 10 µM | > 10 µM | > 10 µM | > 10 µM | > 10 µM | > 10 µM | > 10 µM
6 | CC12CCC(O)CC1CCC1C2CCC2(C)C(C3=CC(=O)OC3)CCC12O (stereo not given) [Digitoxigenin] | 0.24 µM | 0.336 µM | 0.338 µM | 0.184 µM | 0.331 µM | 0.264 µM | 0.368 µM | 0.234 µM | 0.35 µM | 0.122 µM | 0.323 µM | 0.213 µM | 0.437 µM | 0.358 µM | 0.286 µM
7 | C[C@H]1O[C@@H](O[C@H]2[C@@H](O)C[C@H](O[C@H]3[C@@H](O)C[C@H](O[C@H]4CC[C@@]5(C)[C@H](CC[C@@H]6[C@@H]5C[C@@H](O)[C@]5(C)[C@@H](C7=CC(=O)OC7)CC[C@]65O)C4)O[C@@H]3C)O[C@@H]2C)C[C@H](O)[C@@H]1O [Digoxin] | 0.0361 µM | 0.102 µM | 0.0342 µM | 0.0855 µM | 0.0555 µM | 0.0639 µM | 0.0647 µM | 0.0546 µM | 0.0386 µM | 0.034 µM | 0.0402 µM | 0.0424 µM | 0.123 µM | 0.0453 µM | 0.0752 µM
8 | O=c1c2ccccc2[se]n1-c1ccccc1 [Ebselen] | > 10 µM | > 10 µM | > 10 µM | > 10 µM | > 10 µM | > 10 µM | > 10 µM | > 10 µM | > 10 µM | > 10 µM | > 10 µM | > 10 µM | > 10 µM | > 10 µM | > 10 µM
9 | Clc1ccc(COC(Cn2ccnc2)c2ccc(Cl)cc2Cl)cc1 (stereo not given) [Econazole] | 2.28 µM | > 10 µM | 3.64 µM | 2.39 µM | 6.71 µM | 6.84 µM | 7.24 µM | > 10 µM | 8.94 µM | 0.925 µM | 1.08 µM | > 10 µM | > 10 µM | > 10 µM | > 10 µM
10 | C#Cc1cnc(O)nc1O [Eniluracil] | > 10 µM | > 10 µM | > 10 µM | > 10 µM | > 10 µM | > 10 µM | > 10 µM | > 10 µM | > 10 µM | > 10 µM | > 10 µM | > 10 µM | > 10 µM | > 10 µM | > 10 µM
11 | CC(/C=C1\SC(=S)N(CC(=O)O)C1=O)=C\c1ccccc1 [Epalrestat] | > 10 µM | > 10 µM | > 10 µM | > 10 µM | > 10 µM | > 10 µM | > 10 µM | > 10 µM | > 10 µM | > 10 µM | > 10 µM | > 10 µM | > 10 µM | > 10 µM | > 10 µM
12 | CCOC(=O)[C@@]1(CCCCCCOc2ccc(Cl)cc2)CO1 [Etomoxir] | 6.76 µM | > 10 µM | > 10 µM | > 10 µM | > 10 µM | > 10 µM | > 10 µM | 5.83 µM | > 10 µM | > 10 µM | > 10 µM | > 10 µM | > 10 µM | > 10 µM | > 10 µM
13 | Cc1c(-c2ccccc2)oc2c(C(=O)OCCN3CCCCC3)cccc2c1=O.Cl [Flavoxate] | > 10 µM | > 10 µM | > 10 µM | > 10 µM | > 10 µM | > 10 µM | > 10 µM | > 10 µM | > 10 µM | > 10 µM | > 10 µM | > 10 µM | > 10 µM | > 10 µM | > 10 µM
14 | O=C(O)CCc1ccc(NCc2cccc(Oc3ccccc3)c2)cc1 [GW9508] | > 10 µM | > 10 µM | > 10 µM | > 10 µM | > 10 µM | > 10 µM | > 10 µM | > 10 µM | > 10 µM | > 10 µM | > 10 µM | > 10 µM | > 10 µM | > 10 µM | > 10 µM
15 | c1ccc2c(c1)OCC(=C1NCCN1)O2 [Idazoxan] | > 10 µM | > 10 µM | > 10 µM | > 10 µM | > 10 µM | > 10 µM | > 10 µM | > 10 µM | > 10 µM | > 10 µM | > 10 µM | > 10 µM | > 10 µM | > 10 µM | > 10 µM
16 | C[C@]12O[C@H](C[C@]1(O)CO)n1c3ccccc3c3c4c(c5c6ccccc6n2c5c31)CNC4=O [Lestaurtinib] | 0.0201 µM | 0.0504 µM | 0.0912 µM | 0.182 µM | 0.149 µM | 0.0227 µM | 0.0467 µM | 0.0512 µM | 0.139 µM | 0.00461 µM | 0.00331 µM | 0.0143 µM | 0.188 µM | 0.0633 µM | 0.848 µM
17 | O=C(O)c1nn(Cc2ccc(Cl)cc2Cl)c2ccccc12 [Lonidamine] | > 10 µM | > 10 µM | > 10 µM | > 10 µM | > 10 µM | > 10 µM | > 10 µM | > 10 µM | > 10 µM | > 10 µM | > 10 µM | > 10 µM | > 10 µM | > 10 µM | > 10 µM
